Assay results published in the NIST ThermoML archive (doi:10.1016/j.tca.2014.04.018).
Several values for one entry are separate records, joined by “and”; a condition that tells them apart may be missing. Equal entries are not always repeated.

Conditions: Liquid, Calculated from knudsen effusion weight loss

CCCc1cc(=O)[nH]c(=S)[nH]1 [6-propyl-2-thiouracil]
Conditions	vapor or sublimation pressure
401.14 K	0.000103 kPa and 0.000101 kPa and 9.7e-05 kPa
403.18 K	0.000124 kPa and 0.000123 kPa and 0.000118 kPa
405.17 K	0.000151 kPa and 0.000144 kPa
407.15 K	0.000196 kPa and 0.000185 kPa and 0.000178 kPa
409.17 K	0.000231 kPa and 0.000224 kPa and 0.000216 kPa
411.16 K	0.000274 kPa and 0.000265 kPa
413.15 K	0.000332 kPa and 0.000325 kPa and 0.000317 kPa
415.17 K	0.00041 kPa and 0.000398 kPa and 0.000382 kPa
417.18 K	0.000484 kPa and 0.000485 kPa and 0.000468 kPa
419.15 K	0.000583 kPa and 0.000558 kPa
421.22 K	0.000714 kPa and 0.000706 kPa and 0.00068 kPa
423.21 K	0.000853 kPa and 0.000839 kPa and 0.00083 kPa
